Key:
[1] = system: s.c. Walker carcinosarcoma; experiment: Chemotherapeutic activity against s.c. Walker carcinosarcoma (tumor weight inhibition); assay type: in vivo, rat (Sprague Dawley); conditions: for s.c. Walker T.W.I.% (tumor weight inhibition): 50% of the acute LD50 i.p., treatment on day 4 after transplantation, T.W.I. on day 8, 10 Sprague Dawley rats per group
From the text: (§1) The chemotherapeutic activity of Compounds 1 to 8 against rat leukaemia L 5222 and s.c. Walker carcinosarcoma is shown in the accompanying Table II, together with that of still another BCNU analog and of BCNU itself.
(§2) The chemotherapeutic activity of Compounds 1 to 8,
(§3) another analog of BCNU, and BCNU against rat leukaemia
(§4) L 5222 and s.c. Walker carcinosarcoma
(§5) ^1 50% of the acute LD50 were given i.p.
^4 Treatment on day 4 after transplantation. Each group consisted of
10 Sprague Dawley vats.
^5 T.W.I. corresponds to tumor weight inhibition in % on day 8,?

Delayed toxicity = assay type: in vivo; conditions: contrary to BCNU; preliminary
[2] = Solubility in water (or tissue fluids); assay type: physicochemical; conditions: comparison with BCNU, in words
[3] = system: autochthonic DMBA-induced mammary carcinoma; experiment: Animal test against autochthonic DMBA-induced mammary carcinoma; assay type: in vivo, rat; conditions: in words; for activity against autochthonic DMBA-induced mammary carcinoma relative to Adriamycin / BCNU: comparison with Adriamycin (and BCNU)
rat leukaemia L 5222 = experiment: Chemotherapeutic activity against rat leukaemia L 5222 (cures); assay type: in vivo; conditions: for L 5222 cures %: 50% of the acute LD50 i.p., treatment on day 6 after transplantation of 5 × 10^6 cells, rats surviving 60 days after treatment considered cured
From the text: as §1, §2, §3, §4, §5
^2 Treatment on day 6 after transplantation of 5 × 10^6
^3 Rats surviving 60 days after treatment were considered cured.

Stability = assay type: physicochemical; conditions: liquid compounds

| Compound | s.c. Walker T.W.I.% (tumor weight inhibition) [1] [%] | L 5222 cures % (rat leukaemia L 5222) [%] | other results |
| --- | --- | --- | --- |
| NC(=O)CNC(=O)N(CCCl)N=O [Compound 10, 2-(3-(2-chloroethyl))-3-nitrosoureido acetamide] |  |  | activity against s.c. Walker carcinosarcoma relative to BCNU ([1]; preliminary animal test, comparison with BCNU): same activity against s.c. Walker carcinosarcoma as BCNU; delayed toxicity (Delayed toxicity): little delayed toxicity; solubility in water relative to BCNU [2]: better solubility in water; activity against autochthonic DMBA-induced mammary carcinoma relative to Adriamycin / BCNU [3]: better activity than "Adriamycin" or BCNU |
| O=NN(CCCl)C(=O)NCCCCNC(=O)N(CCCl)N=O [Compound 3, 1,1'-tetramethylenebis-CNU] | 77 | 75 |  |
| O=NN(CCCl)C(=O)NCCCCCCNC(=O)N(CCCl)N=O [Compound 5, 1,1'-hexamethylenebis-CNU] | 70 | 50 |  |
| CS(=O)(=O)OCCNC(=O)N(CCCl)N=O [Compound 9] |  |  | activity against rat autochthonic DMBA-induced mammary carcinoma ([3]; animal test): excellent activity; activity against autochthonic DMBA-induced mammary carcinoma relative to Adriamycin / BCNU [3]: significantly exceeding that of "Adriamycin" |
| O=NN(CCCl)C(=O)NCCO [Compound 6, 1-(2-hydroxyethyl)-3-(2-chloroethyl)-3-nitroso urea] | 85 | 90 | chemotherapeutic activity against rat leukaemia L 5222 and s.c. Walker carcinosarcoma (in words) (rat leukaemia L 5222; summary of Table II, both tumor models): outstanding activity |
| O=NN(CCCl)C(=O)NCCCNC(=O)N(CCCl)N=O [Compound 2, 1,1'-propylenebis-CNU] | 72 | 60 |  |
| Cc1ccc(NC(=O)N(CCCl)N=O)cc1NC(=O)N(CCCl)N=O [1,1'-(4-methyl-m-phenylene)bis-CNU] | 35 | 0 |  |
| O=NN(CCCl)C(=O)NCCCCO [Compound 8, 1-(4-hydroxybutyl)-CNU] | 4 | 5 | stability (for elementary analysis) (Stability): not stable enough for elementary analysis |
| O=NN(CCCl)C(=O)NCCCCCNC(=O)N(CCCl)N=O [Compound 4, 1,1'-pentamethylenebis-CNU] | 68 | 30 |  |
| O=NN(CCCl)C(=O)NCCCl [BCNU, 1,3-bis-(2-chloroethyl)-1-nitroso urea, reference compound] | 83 | 70 |  |
| O=NN(CCCl)C(=O)NCCCO [Compound 7, 1-(3-hydroxypropyl)-CNU] | 0 | 10 | stability (for elementary analysis) (Stability): not stable enough for elementary analysis |
| O=NN(CCCl)C(=O)NCCNC(=O)N(CCCl)N=O [Compound 1, 1,1'-ethylenebis-CNU] | 75 | 60 |  |
